Literature values as cited in patent US20180133221A1, “ADMINISTRATION OF UBIQUITIN-ACTIVATING ENZYME INHIBITOR AND CHEMOTHERAPEUTIC AGENTS” (Millennium Pharmaceuticals, Inc., priority 2014, published 2018).

What was measured:
[1] = tested on: mouse acute myeloid leukemia (AML model); details: mouse AML model (Xu et al., 2010); cited from earlier work
[2] = tested on: leukemia and myeloma cell lines; details: leukemia and myeloma cell lines (Xu et al., 2010); cited from earlier work

O=C1NN(c2ccc(F)c(Cl)c2)C(=O)/C1=C\c1ccc([N+](=O)[O-])o1 [PYZD-4409]
anti-tumor activity [1]: demonstrated anti-tumor activity
cell death [2]: induced cell death
